#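 How tested: cells in 96-well plates exposed to compound for 48 hours at five concentrations. At the GI50, growth is halved. TGI: concentration producing complete growth inhibition.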
# Key:
# Assay in all cases: DTP human tumour cell line panel, 48 h
# SNB-19 CNS = system: SNB-19 CNS
# LOX IMVI melanoma = system: LOX IMVI melanoma
# MDA-MB-435 = system: MDA-MB-435
# OVCAR-8 ovarian = system: OVCAR-8 ovarian
# MOLT-4 leukemia = system: MOLT-4 leukemia
# MCF7 breast = system: MCF7 breast
# UACC-257 melanoma = system: UACC-257 melanoma
# CCRF-CEM leukemia = system: CCRF-CEM leukemia
# CAKI-1 renal = system: CAKI-1 renal
# HCT-15 colon = system: HCT-15 colon
# SK-MEL-28 melanoma = system: SK-MEL-28 melanoma
# SW-620 colon = system: SW-620 colon
# A498 renal = system: A498 renal
# M14 melanoma = system: M14 melanoma
# RXF 393 renal = system: RXF 393 renal
# OVCAR-3 ovarian = system: OVCAR-3 ovarian
# HT29 colon = system: HT29 colon
# 786-0 renal = system: 786-0 renal
# HOP-92 NSCLC = system: HOP-92 NSCLC
# NCI-H522 lung = system: NCI-H522 lung
# KM12 colon = system: KM12 colon
# RPMI-8226 leukemia = system: RPMI-8226 leukemia
# UACC-62 melanoma = system: UACC-62 melanoma
# OVCAR-4 ovarian = system: OVCAR-4 ovarian
# SR leukemia = system: SR leukemia
# OVCAR-5 ovarian = system: OVCAR-5 ovarian
# SNB-75 CNS = system: SNB-75 CNS
# COLO 205 colon = system: COLO 205 colon
# NCI/ADR-RES ovarian = system: NCI/ADR-RES ovarian
# BT-549 breast = system: BT-549 breast
# SF-539 CNS = system: SF-539 CNS
# TK-10 renal = system: TK-10 renal
# HL-60(TB) leukemia = system: HL-60(TB) leukemia
# IGROV1 ovarian = system: IGROV1 ovarian
# SN12C renal = system: SN12C renal
# SK-OV-3 ovarian = system: SK-OV-3 ovarian
# ACHN renal = system: ACHN renal
# SF-295 CNS = system: SF-295 CNS
# HCC-2998 colon = system: HCC-2998 colon
# A549 NSCLC = system: A549 NSCLC
# SK-MEL-5 melanoma = system: SK-MEL-5 melanoma
# SF-268 CNS = system: SF-268 CNS
# SK-MEL-2 melanoma = system: SK-MEL-2 melanoma
# T-47D breast = system: T-47D breast
# NCI-H23 lung = system: NCI-H23 lung
# UO-31 renal = system: UO-31 renal
# NCI-H460 lung = system: NCI-H460 lung
# HOP-62 NSCLC = system: HOP-62 NSCLC
# PC-3 prostate = system: PC-3 prostate
# DU-145 prostate = system: DU-145 prostate
# NCI-H226 lung = system: NCI-H226 lung
# EKVX NSCLC = system: EKVX NSCLC
# HS 578T breast = system: HS 578T breast
# U251 CNS = system: U251 CNS
# MALME-3M melanoma = system: MALME-3M melanoma
# MDA-MB-231 breast = system: MDA-MB-231 breast
# HCT-116 colon = system: HCT-116 colon
# K-562 leukemia = system: K-562 leukemia
compound,measurement,setting,value
COc1ccccc1N1CCN(C(=O)c2ccc(NS(=O)(=O)c3cccc4cccnc34)cc2)CC1,GI50,SNB-19 CNS,29.5 µM
same,TGI,SNB-19 CNS,> 85.5 µM
same,GI50,LOX IMVI melanoma,> 100 µM
same,TGI,LOX IMVI melanoma,> 100 µM
same,GI50,MDA-MB-435,> 100 µM
same,TGI,MDA-MB-435,> 100 µM
same,GI50,OVCAR-8 ovarian,> 43.5 µM
same,TGI,OVCAR-8 ovarian,> 100 µM
same,GI50,MOLT-4 leukemia,> 100 µM
same,TGI,MOLT-4 leukemia,> 100 µM
same,GI50,MCF7 breast,> 49.4 µM
same,TGI,MCF7 breast,> 100 µM
same,GI50,UACC-257 melanoma,> 100 µM
same,TGI,UACC-257 melanoma,> 100 µM
same,GI50,CCRF-CEM leukemia,> 100 µM
same,TGI,CCRF-CEM leukemia,> 100 µM
same,GI50,CAKI-1 renal,> 100 µM
same,TGI,CAKI-1 renal,> 100 µM
same,GI50,HCT-15 colon,> 100 µM
same,TGI,HCT-15 colon,> 100 µM
same,GI50,SK-MEL-28 melanoma,> 100 µM
same,TGI,SK-MEL-28 melanoma,> 100 µM
same,GI50,SW-620 colon,> 100 µM
same,TGI,SW-620 colon,> 100 µM
same,GI50,A498 renal,> 47.6 µM
same,TGI,A498 renal,> 100 µM
same,GI50,M14 melanoma,> 100 µM
same,TGI,M14 melanoma,> 100 µM
same,GI50,RXF 393 renal,5.02 µM
same,TGI,RXF 393 renal,59.4 µM
same,GI50,OVCAR-3 ovarian,> 100 µM
same,TGI,OVCAR-3 ovarian,> 100 µM
same,GI50,HT29 colon,> 100 µM
same,TGI,HT29 colon,> 100 µM
same,GI50,786-0 renal,> 61.7 µM
same,TGI,786-0 renal,> 100 µM
same,GI50,HOP-92 NSCLC,> 100 µM
same,TGI,HOP-92 NSCLC,> 100 µM
same,GI50,NCI-H522 lung,22.2 µM
same,TGI,NCI-H522 lung,> 88.5 µM
same,GI50,KM12 colon,> 100 µM
same,TGI,KM12 colon,> 100 µM
same,GI50,RPMI-8226 leukemia,> 100 µM
same,TGI,RPMI-8226 leukemia,> 100 µM
same,GI50,UACC-62 melanoma,> 100 µM
same,TGI,UACC-62 melanoma,> 100 µM
same,GI50,OVCAR-4 ovarian,> 100 µM
same,TGI,OVCAR-4 ovarian,> 100 µM
same,GI50,SR leukemia,> 100 µM
same,TGI,SR leukemia,> 100 µM
same,GI50,OVCAR-5 ovarian,> 100 µM
same,TGI,OVCAR-5 ovarian,> 100 µM
same,GI50,SNB-75 CNS,10.1 µM
same,TGI,SNB-75 CNS,> 53.7 µM
same,GI50,COLO 205 colon,> 100 µM
same,TGI,COLO 205 colon,> 100 µM
same,GI50,NCI/ADR-RES ovarian,> 100 µM
same,TGI,NCI/ADR-RES ovarian,> 100 µM
same,GI50,BT-549 breast,> 76.5 µM
same,TGI,BT-549 breast,> 100 µM
same,GI50,SF-539 CNS,> 54.4 µM
same,TGI,SF-539 CNS,> 100 µM
same,GI50,TK-10 renal,> 64.1 µM
same,TGI,TK-10 renal,> 100 µM
same,GI50,HL-60(TB) leukemia,> 100 µM
same,TGI,HL-60(TB) leukemia,> 100 µM
same,GI50,IGROV1 ovarian,> 78.4 µM
same,TGI,IGROV1 ovarian,> 100 µM
same,GI50,SN12C renal,> 100 µM
same,TGI,SN12C renal,> 100 µM
same,GI50,SK-OV-3 ovarian,> 45.5 µM
same,TGI,SK-OV-3 ovarian,> 83.3 µM
same,GI50,ACHN renal,> 71 µM
same,TGI,ACHN renal,> 100 µM
same,GI50,SF-295 CNS,> 39 µM
same,TGI,SF-295 CNS,> 100 µM
same,GI50,HCC-2998 colon,> 100 µM
same,TGI,HCC-2998 colon,> 100 µM
same,GI50,A549 NSCLC,> 100 µM
same,TGI,A549 NSCLC,> 100 µM
same,GI50,SK-MEL-5 melanoma,> 100 µM
same,TGI,SK-MEL-5 melanoma,> 100 µM
same,GI50,SF-268 CNS,> 48.3 µM
same,TGI,SF-268 CNS,> 100 µM
same,GI50,SK-MEL-2 melanoma,> 100 µM
same,TGI,SK-MEL-2 melanoma,> 100 µM
same,GI50,T-47D breast,> 22.1 µM
same,TGI,T-47D breast,> 100 µM
same,GI50,NCI-H23 lung,> 67.2 µM
same,TGI,NCI-H23 lung,> 100 µM
same,GI50,UO-31 renal,> 100 µM
same,TGI,UO-31 renal,> 100 µM
same,GI50,NCI-H460 lung,> 100 µM
same,TGI,NCI-H460 lung,> 100 µM
same,GI50,HOP-62 NSCLC,> 49.7 µM
same,TGI,HOP-62 NSCLC,> 100 µM
same,GI50,PC-3 prostate,> 100 µM
same,TGI,PC-3 prostate,> 100 µM
same,GI50,DU-145 prostate,> 100 µM
same,TGI,DU-145 prostate,> 100 µM
same,GI50,NCI-H226 lung,> 33.2 µM
same,TGI,NCI-H226 lung,> 100 µM
same,GI50,EKVX NSCLC,> 100 µM
same,TGI,EKVX NSCLC,> 100 µM
same,GI50,HS 578T breast,> 46.4 µM
same,TGI,HS 578T breast,99.4 µM
same,GI50,U251 CNS,78.2 µM
same,TGI,U251 CNS,> 100 µM
same,GI50,MALME-3M melanoma,> 100 µM
same,TGI,MALME-3M melanoma,> 100 µM
same,GI50,MDA-MB-231 breast,> 53.6 µM
same,TGI,MDA-MB-231 breast,> 100 µM
same,GI50,HCT-116 colon,> 94.2 µM
same,TGI,HCT-116 colon,> 100 µM
same,GI50,K-562 leukemia,> 100 µM
same,TGI,K-562 leukemia,> 100 µM

# — PubChem BioAssay (NCI)
